Data reported in patent publication US20240228512A1, “ACYCLIC OXAZEPINE COMPOUNDS COMPRISING A 6-AZA MOIETY AND USES THEREOF” (Genentech, Inc., priority 2022, published 2024).
Each block holds one molecule with its values, some of them ahead of it.

Tests used:
SW620 cells = experiment: SW620 3D proliferation assay (CellTiter-Glo); format: cell-based; settings: Homo sapiens, SW-620, 168 h, SW620, 3D culture, 7 days, read-out: SW620 CTG IC50
Method in brief: (§1)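 IC50 values were fitted with a 4-parameter logistic to luminescent ATP signal (CellTiter-Glo 3D) after 7-day compound exposure. Seeding was 3000 (96-well) or 1000 (384-well) cells/well in low-attachment plates with RPMI-1640, 10% FBS, 2 mM L-glutamine.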

H1975 cells = experiment: H1975 CTG proliferation assay; format: cell-based; settings: Homo sapiens, NCI-H1975, H1975, CTG
HPAC cells = experiment: HPAC 3D proliferation assay (CellTiter-Glo); format: cell-based; settings: Homo sapiens, 168 h, 3D culture, 7 days, read-out: HPAC CTG IC50
Method in brief: as §1

SW480 cells = experiment: SW480 CTG proliferation assay; format: cell-based; settings: Homo sapiens
SW620 PERK = SW620 PERK assay; format: cell-based; settings: Homo sapiens, SW-620, SW620, PERK
[1] = biological target: recombinant human KRAS wild type (SOS1-mediated nucleotide exchange) (Homo sapiens (Human), UniProt P01116); experiment: KRAS biochemical assay, BODIPY-GDP exchange TR-FRET (WT-GDP HTRF)
Description: [Worded in the source for another variant; this variant is reported under the same test.] KRAS Biochemical Assay—BODIPY-GDP Exchange TR-FRET.
Biochemical compound potencies were assessed by evaluating inhibition of SOS1-mediated nucleotide exchange in KRAS G12D. The SOS1-promoted exchange of fluorescently-labeled GDP (BOPIDY-GDP) was monitored by time-resolved fluorescence resonance energy transfer (TR-FRET). Compounds solubilized in DMSO were dispensed as concentration series into 384-well white assay plates. […] The reaction was initiated with the addition of 5 μL of 3 nM recombinant human SOS1 and 300 nM BODIPY-GDP in assay buffer. After a 60-minute incubation, the fluorescence was measured with excitation at 337 nm and emission at 490 and 520 nm. The TR-FRET ratio was determined as the fluorescence at 520 nm divided by the fluorescence at 490 nm multiplied by 10,000. […] The normalized TR-FRET results were plotted against compound concentration, and the data fit to a 4-parameter Hill equation to determine the IC50 values.

[2] = biological target: recombinant human mutant KRas G12V (SOS1-mediated nucleotide exchange) (Homo sapiens (Human), UniProt P01116, G12V); experiment: KRAS biochemical assay, BODIPY-GDP exchange TR-FRET (G12V-GDP HTRF)
Sequence of recombinant human mutant KRas G12V (SOS1-mediated nucleotide exchange) (P01116-2 other isoform, or with tags, fused parts or gaps G12V): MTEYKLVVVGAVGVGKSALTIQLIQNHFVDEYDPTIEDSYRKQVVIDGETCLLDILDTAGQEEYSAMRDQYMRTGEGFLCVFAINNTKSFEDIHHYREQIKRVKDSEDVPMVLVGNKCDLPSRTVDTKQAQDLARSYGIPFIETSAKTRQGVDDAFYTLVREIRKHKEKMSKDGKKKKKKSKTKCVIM

Sequence of recombinant human KRAS wild type (SOS1-mediated nucleotide exchange) (P01116-2 other isoform, or with tags, fused parts or gaps): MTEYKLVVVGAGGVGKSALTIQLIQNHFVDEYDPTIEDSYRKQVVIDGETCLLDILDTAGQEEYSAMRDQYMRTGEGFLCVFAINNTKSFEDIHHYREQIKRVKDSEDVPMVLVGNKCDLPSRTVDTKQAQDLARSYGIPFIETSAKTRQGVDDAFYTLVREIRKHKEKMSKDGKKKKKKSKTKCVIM

Structure (SMILES): C#Cc1cccc2cc(O)cc(-c3nc4c5c(nc(OCC67CCN6CC(F)(F)C7)nc5c3F)N([C@H](C)c3cccnc3N)CCO4)c12 (stereo partly drawn) [Example 1, 4-(10-((R)-1-(2-aminopyridin-3-yl)ethyl)-2-((3,3-difluoro-1-azabicyclo[3.2.0]heptan-5-yl)methoxy)-4-fluoro-9,10-dihydro-8H-7-oxa-1,3,6,10-tetraazacyclohepta[de]naphthalen-5-yl)-5-ethynyinaphthalen-2-ol]
IC50 (SW620 cells): 7 nM
IC50 (H1975 cells): 47.4 nM
IC50 (HPAC cells): 144 nM
IC50 (SW480 cells): 26 nM
IC50 (SW620 PERK): 1.42 nM

Structure (SMILES): C#Cc1cccc2cc(N)cc(-c3nc4c5c(nc(OC[C@@]67CCCN6C[C@H](F)C7)nc5c3F)N([C@H](C)c3cccnc3N)CCO4)c12 [Example 4, 3-((R)-1-(5-(3-amino-8-ethynyinaphthalen-1-yl)-4-fluoro-2-(((2R,7aS)-2-fluorotetrahydro-1H-pyrrolizin-7a(5H)-yl)methoxy)-8,9-dihydro-10H-7-oxa-1,3,6,10-tetraazacyclohepta[de]naphthalen-10-yl)ethyl)pyridin-2-amine]
IC50 (SW620 cells): 1.26 nM
IC50 (H1975 cells): 2.59 nM
IC50 (HPAC cells): 5.72 nM
IC50 (SW480 cells): 2.4 nM
IC50 (SW620 PERK): 1.07 nM

Structure (SMILES): Cc1c(F)c(N)cc(-c2nc3c4c(nc(OC[C@@H]5CC[C@H]6COCCN65)nc4c2F)N([C@H](C)c2cccnc2N)CCO3)c1C(F)(F)F [Example 16, 3-((R)-1-(5-(5-amino-4-fluoro-3-methyl-2-(trifluoromethyl)phenyl)-4-fluoro-2-(((6S,8aS)-hexahydro-1H-pyrrolo[2,1-c][1,4]oxazin-6-yl)methoxy)-8,9-dihydro-10H-7-oxa-1,3,6,10-tetraazacyclohepta[de]naphthalen-10-yl)ethyl)pyridin-2-amine]
IC50 (SW620 cells): 3.77 nM
IC50 (H1975 cells): 31.1 nM
IC50 (HPAC cells): 30.2 nM
IC50 (SW480 cells): 10 nM
IC50 (SW620 PERK): 2.53 nM

Structure (SMILES): Cc1nc(N)cc(-c2nc3c4c(nc(OC[C@@]56CCCN5C[C@H](F)C6)nc4c2Cl)N([C@H](C)c2cccnc2N)CCO3)c1C(F)(F)F [Example 626, 4-(10-((R)-1-(2-aminopyridin-3-yl)ethyl)-4-chloro-2-(((2R,7aS)-2-fluorotetrahydro-1H-pyrrolizin-7a(5H)-yl)methoxy)-9,10-dihydro-8H-7-oxa-1,3,6,10-tetraazacyclohepta[de]naphthalen-5-yl)-6-methyl-5-(trifluoromethyl)pyridin-2-amine]
IC50 [1]: 0.67 nM
IC50 [2]: 0.16 nM
IC50 (SW620 cells): 27.1 nM
IC50 (H1975 cells): 262 nM
IC50 (HPAC cells): 160 nM
IC50 (SW620 PERK): 10.5 nM

Structure (SMILES): Cc1c(F)c(N)nc(-c2nc3c4c(nc(OC[C@@]56CCCN5C[C@H](F)C6)nc4c2F)N([C@H](C)c2nccnc2N)CCO3)c1C(F)(F)F [Example 630, 3-((R)-1-(5-(6-amino-5-fluoro-4-methyl-3-(trifluoromethyl)pyridin-2-yl)-4-fluoro-2-(((2R,7aS)-2-fluorotetrahydro-1H-pyrrolizin-7a(5H)-yl)methoxy)-8,9-dihydro-10H-7-oxa-1,3,6,10-tetraazacyclohepta[de]naphthalen-10-yl)ethyl)pyrazin-2-amine]
IC50 [1]: 2 nM
IC50 [2]: 0.32 nM
IC50 (SW620 cells): 28.8 nM
IC50 (H1975 cells): 134 nM
IC50 (HPAC cells): 208 nM
IC50 (SW620 PERK): 21.2 nM

Structure (SMILES): Cc1c(F)c(N)nc(-c2nc3c4c(nc(OC[C@@]56CCCN5C[C@]5(CC5(F)F)C6)nc4c2F)N([C@H](C)c2nccnc2N)CCO3)c1C(F)(F)F [Example 632]
IC50 [1]: 0.379 nM
IC50 [2]: 0.089 nM
IC50 (SW620 cells): 15.5 nM
IC50 (H1975 cells): 83.4 nM
IC50 (HPAC cells): 83.4 nM
IC50 (SW620 PERK): 6.08 nM

Further lines, with some results ahead:

IC50 (SW620 cells): 5.63 nM
IC50 (H1975 cells): 59.4 nM
IC50 (SW480 cells): 2.8 nM
IC50 (SW620 PERK): 1.62 nM
Structure (SMILES): Cc1c(F)c(N)c(F)c(-c2nc3c4c(nc(OC[C@@]56CCCN5C[C@H](F)C6)nc4c2F)N([C@H](C)c2cccnc2N)CCO3)c1C(F)(F)F [Example 12, 3-((1R)-1-(5-(3-amino-2,4-difluoro-5-methyl-6-(trifluoromethyl)phenyl)-4-fluoro-2-(((2R,7aS)-2-fluorotetrahydro-1H-pyrrolizin-7a(5H)-yl)methoxy)-8,9-dihydro-10H-7-oxa-1,3,6,10-tetraazacyclohepta[de]naphthalen-10-yl)ethyl)pyridin-2-amine]
IC50 (HPAC cells): 14.7 nM

IC50 (SW620 cells): 0.74 nM
IC50 (H1975 cells): 2.59 nM
IC50 (SW480 cells): 10 nM
IC50 (SW620 PERK): 2.24 nM
Structure (SMILES): Cc1cc(N)c(F)c(-c2nc3c4c(nc(OC[C@@]56CCCN5C[C@H](F)C6)nc4c2F)N([C@H](C)c2cccnc2N)CCO3)c1C(F)(F)F [Example 15, 3-((1R)-1-(5-(3-amino-2-fluoro-5-methyl-6-(trifluoromethyl)phenyl)-4-fluoro-2-(((2R,7aS)-2-fluorotetrahydro-1H-pyrrolizin-7a(5H)-yl)methoxy)-8,9-dihydro-10H-7-oxa-1,3,6,10-tetraazacyclohepta[de]naphthalen-10-yl)ethyl)pyridin-2-amine]
IC50 (HPAC cells): 8.84 nM

IC50 (SW620 cells): 13.7 nM
IC50 (H1975 cells): 9.15 nM
IC50 (SW480 cells): 110 nM
IC50 (SW620 PERK): 4.33 nM
Structure (SMILES): C#Cc1cccc2cc(O)cc(-c3nc4c5c(nc(OC[C@@H]6CC[C@H]7COCCN76)nc5c3F)N([C@H](C)c3cccnc3N)CCO4)c12 [Example 17, 4-(10-((R)-1-(2-aminopyridin-3-yl)ethyl)-4-fluoro-2-(((6S,8aS)-hexahydro-1H-pyrrolo[2,1-c][1,4]oxazin-6-yl)methoxy)-9,10-dihydro-8H-7-oxa-1,3,6,10-tetraazacyclohepta[de]naphthalen-5-yl)-5-ethynyinaphthalen-2-ol]
IC50 (HPAC cells): 228 nM

IC50 (SW620 cells): 1.68 nM
IC50 (H1975 cells): 2.59 nM
IC50 (SW480 cells): 31 nM
Structure (SMILES): CCc1cccc2cc(O)cc(-c3nc4c5c(nc(OC[C@@]67CCCN6C[C@H](F)C7)nc5c3F)N([C@H](C)c3cccnc3N)CCO4)c12 [Example 27, 4-(10-((R)-1-(2-aminopyridin-3-yl)ethyl)-4-fluoro-2-(((2R,7aS)-2-fluorotetrahydro-1H-pyrrolizin-7a(5H)-yl)methoxy)-9,10-dihydro-8H-7-oxa-1,3,6,10-tetraazacyclohepta[de]naphthalen-5-yl)-5-ethylnaphthalen-2-ol]
IC50 (HPAC cells): 55.2 nM

IC50 [1]: 4.67 nM
IC50 [2]: 0.44 nM
IC50 (SW620 cells): 193 nM
IC50 (H1975 cells): 854 nM
IC50 (SW620 PERK): 52.6 nM
Structure (SMILES): Cc1nc(N)cc(-c2nc3c4c(nc(OC[C@@H]5CCCN5C)nc4c2F)N([C@H](C)c2cccnc2N)CCO3)c1C(F)(F)F [Example 627, 4-(10-((R)-1-(2-aminopyridin-3-yl)ethyl)-4-fluoro-2-(((S)-1-methylpyrrolidin-2-yl)methoxy)-9,10-dihydro-8H-7-oxa-1,3,6,10-tetraazacyclohepta[de]naphthalen-5-yl)-6-methyl-5-(trifluoromethyl)pyridin-2-amine]
IC50 (HPAC cells): 1360 nM

IC50 [1]: 0.826 nM
IC50 [2]: 0.33 nM
IC50 (SW620 cells): 14.6 nM
IC50 (H1975 cells): 471 nM
IC50 (SW620 PERK): 14 nM
Structure (SMILES): Cc1nc(N)nc(-c2nc3c4c(nc(OC[C@@]56CCCN5C[C@H](F)C6)nc4c2F)N([C@H](C)c2cccnc2N)CCO3)c1C(F)(F)F [Example 628, 4-(10-((R)-1-(2-aminopyridin-3-yl)ethyl)-4-fluoro-2-(((2R,7aS)-2-fluorotetrahydro-1H-pyrrolizin-7a(5H)-yl)methoxy)-9,10-dihydro-8H-7-oxa-1,3,6,10-tetraazacyclohepta[de]naphthalen-5-yl)-6-methyl-5-(trifluoromethyl)pyrimidin-2-amine]
IC50 (HPAC cells): 331 nM

IC50 [1]: 0.741 nM
IC50 [2]: 0.21 nM
IC50 (SW620 cells): 47.3 nM
IC50 (H1975 cells): 113 nM
IC50 (SW620 PERK): 16.5 nM
Structure (SMILES): Cc1c(F)c(N)nc(-c2nc3c4c(nc(OC[C@@]56CCCN5C[C@H](F)C6)nc4c2F)N([C@H](C)c2cc(F)cnc2N)CCO3)c1C(F)(F)F [Example 631, 6-(10-((R)-1-(2-amino-5-fluoropyridin-3-yl)ethyl)-4-fluoro-2-(((2R,7aS)-2-fluorotetrahydro-1H-pyrrolizin-7a(5H)-yl)methoxy)-9,10-dihydro-8H-7-oxa-1,3,6,10-tetraazacyclohepta[de]naphthalen-5-yl)-3-fluoro-4-methyl-5-(trifluoromethyl)pyridin-2-amine]
IC50 (HPAC cells): 110 nM

IC50 [1]: 0.416 nM
IC50 [2]: 0.2 nM
IC50 (SW620 cells): 19.9 nM
IC50 (H1975 cells): 48.4 nM
IC50 (SW620 PERK): 23 nM
Structure (SMILES): Cc1cc(N)nc(-c2nc3c4c(nc(OC[C@@]56CCCN5C[C@H](F)C6)nc4c2Cl)N([C@H](C)c2cccnc2N)CCO3)c1C(F)(F)F [Example 633, 6-(10-((R)-1-(2-aminopyridin-3-yl)ethyl)-4-chloro-2-(((2R,7aS)-2-fluorotetrahydro-1H-pyrrolizin-7a(5H)-yl)methoxy)-9,10-dihydro-8H-7-oxa-1,3,6,10-tetraazacyclohepta[de]naphthalen-5-yl)-4-methyl-5-(trifluoromethyl)pyridin-2-amine]
IC50 (HPAC cells): 77.8 nM
